Data reported in patent US9546157B2, “Asymmetric piperidinyl-substituted ureas as medicines” (Helsinn Healthcare SA, priority 2014, dated 2017).

Tests used:
GHSR1a [1] = target: T1, GHSR1a (Homo sapiens, UniProt Q92847); test: Calcium FLIPR assay, GHSR-1a antagonism (reduction of ghrelin response); type: cell-based; conditions: HEK293/GHSR1a cells, ghrelin 10 nM
T1 construct: expressed in transfected cells; host or cells: HEK293
How it was run: (§1)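 HEK293 cells expressing GHSR1a, seeded 24 hr earlier and loaded with calcium dye for 30-60 min at room temperature or 37° C, were read by FLIPR fluorescence. Agonism: compound added at t=20 sec, calcium followed 2 minutes. Antagonism: compound plus ghrelin (10 nM) at t=20 sec; potency from reduction of ghrelin response.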

GHSR1a [2] = target: T1, GHSR1a; test: Calcium FLIPR assay, GHSR-1a agonism; type: cell-based; design: Emax: unit not given here; conditions: HEK293/GHSR1a cells
How it was run: as §1

T1 sequence (Q92847 whole entry): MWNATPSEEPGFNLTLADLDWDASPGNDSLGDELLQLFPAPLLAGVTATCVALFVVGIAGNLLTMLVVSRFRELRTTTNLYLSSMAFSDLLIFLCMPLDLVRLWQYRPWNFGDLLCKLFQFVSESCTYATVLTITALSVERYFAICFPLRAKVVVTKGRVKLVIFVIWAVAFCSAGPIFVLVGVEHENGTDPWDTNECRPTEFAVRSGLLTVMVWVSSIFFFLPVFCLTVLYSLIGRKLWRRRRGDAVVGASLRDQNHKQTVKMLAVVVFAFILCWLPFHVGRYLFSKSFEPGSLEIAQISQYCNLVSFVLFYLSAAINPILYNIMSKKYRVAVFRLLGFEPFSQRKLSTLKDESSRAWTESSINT

Compound	IC50 (GHSR1a [1]) [nM]	EC50 (GHSR1a [2]) [nM]	Emax (GHSR1a [2])
CC(NC(=O)N(C)C1CCN(C)CC1)c1ccc(-c2ccncc2)c2ccccc12 (stereo not shown) [Compound H0578, 1-methyl-1-(1-methylpiperidin-4-yl)-3-(1-(4-(pyridin-4-yl)naphthalen-1-yl)ethyl)urea]	490	> 30000	
COc1cc(OC)cc(-c2ccc(C(C)NC(=O)N(C)C3CCN(C)CC3)c(Cl)c2Cl)c1 (stereo not shown) [Compound H0611, 3-(1-(2,3-dichloro-3′,5′-dimethoxy-[1,1′-biphenyl]-4-yl)ethyl)-1-methyl-1-(1-methylpiperidin-4-yl)urea]	2300	> 30000	
COc1ncc(-c2ccc(C(C)NC(=O)N(C)C3CCN(C)CC3)c(Cl)c2Cl)c(OC)n1 (stereo not shown) [Compound H0663, 3-(1-(2,3-dichloro-4-(2,4-dimethoxypyrimidin-5-yl)phenyl)ethyl)-1-methyl-1-(1-methylpiperidin-4-yl)urea]	274	> 30000	
CC(NC(=O)N(C)C1CCN(C)CC1)c1ccc(-c2cncc(/C=N/O)c2)c(Cl)c1Cl (stereo not shown) [Compound H0646, (E)-3-(1-(2,3-dichloro-4-(5-((hydroxyimino)methyl)pyridin-3-yl)phenyl)ethyl)-1-methyl-1-(1-methylpiperidin-4-yl)urea]	541	> 30000	
CC(NC(=O)N(C)C1CCN(C)CC1)c1ccc(-c2cnc(N3CCN(C)CC3)c(C#N)c2)c(Cl)c1Cl (stereo not shown) [Compound H0821, 3-(1-(2,3-dichloro-4-(5-cyano-6-(4-methylpiperazin-1-yl)pyridin-3-yl)phenyl)ethyl)-1-methyl-1-(1-methylpiperidin-4-yl)urea]	2300	> 30000	
CC(NC(=O)N(C)C1CCN(C)CC1)c1ccc(CCCO)c(Cl)c1Cl (stereo not shown) [Compound H0643, 3-(1-(2,3-dichloro-4-(3-hydroxypropyl)phenyl)ethyl)-1-methyl-1-(1-methylpiperidin-4-yl)urea]	22	83	2660
CC(NC(=O)N(C)C1CCN(C)CC1)c1ccc(-c2cnccn2)c(Cl)c1F (stereo not shown) [Compound H0856, 3-(1-(3-chloro-2-fluoro-4-(pyrazin-2-yl)phenyl)ethyl)-1-methyl-1-(1-methylpiperidin-4-yl)urea]	339	> 30000	
CC(NC(=O)N(C)C1CCN(C)CC1)c1ccc(-c2cnc(F)nc2)c(Cl)c1Cl (stereo not shown) [Compound H0800, 3-(1-(2,3-dichloro-4-(2-fluoropyrimidin-5-yl)phenyl)ethyl)-1-methyl-1-(1-methylpiperidin-4-yl)urea]	1300	> 30000	
CC(NC(=O)N(C)C1CCN(C)CC1)c1ccc(C#N)c2ccccc12 (stereo not shown) [Compound H0790, 3-(1-(4-cyanonaphthalen-1-yl)ethyl)-1-methyl-1-(1-methylpiperidin-4-yl)urea]	35	32	2810
CC(NC(=O)N(C)C1CCN(C)CC1)c1ccc(-c2ccc(C#N)s2)c(Cl)c1Cl (stereo not shown) [Compound H0713, 3-(1-(2,3-dichloro-4-(5-cyanothiophen-2-yl)phenyl)ethyl)-1-methyl-1-(1-methylpiperidin-4-yl)urea]	187	29	3424
CC(NC(=O)N(C)C1CCN(C)CC1)c1ccc(-c2cnc(NC3CC3)nc2)c(Cl)c1Cl (stereo not shown) [Compound H0805, 3-(1-(2,3-dichloro-4-(2-(cyclopropylamino)pyrimidin-5-yl)phenyl)ethyl)-1-methyl-1-(1-methylpiperidin-4-yl)urea]	4	9	5433
CC(NC(=O)N(C)C1CCN(C)CC1)c1ccc(-c2ccc(N(C)C)cc2)c(Cl)c1Cl (stereo not shown) [Compound H0518, 3-(1-(2,3-dichloro-4′-(dimethylamino)-[1,1′-biphenyl]-4-yl)ethyl)-1-methyl-1-(1-methylpiperidin-4-yl)urea]	841	> 30000	
